Results: US20180346731A1, “Formation of Stable Pyranoanthocyanins, and Uses Thereof as Sources of Natural Color” (Ohio State Innovation Foundation, priority 2017, published 2018)

What was measured:
[1] = UV-Vis absorbance loss and first-order bleaching kinetics of pigment solutions with ascorbic acid (pH 3.0 citrate buffer, 25° C., dark); assay type: physicochemical; conditions: for K (reaction rate, first-order) / t1/2: 25° C. dark
Protocol: The semi-purified chokeberry extract, the isolated cyanidin-3-galactoside, and the purified 5-carboxypyranocyanidin-3-galactoside were diluted in pH 3.0 citrate buffer (0.1 M adjusted with HCl) until an absorbance of 1.0 at their respective λmax was reached. Levels of AA of 250, 500, and 1000 mg/L were added using a concentrated ascorbic acid stock solution, and a control consisting of each pigment with the absence of AA was maintained. The control consisted of the pigment in the buffer in the absence of AA. An additional test was performed with the same model juice using hydrogen peroxide, a known degradation product of AA. To determine if AA bleaching was due to formation of H2O2, direct addition of it was investigated. In place of added AA, a 62.2 μL of a 0.3% peroxide solution was added to match the molar equivalency of the 500 mg/L AA level, which was 2.84 mM. All samples were brought to the same final volume with additional citrate buffer. […] Samples were stored in the dark at 25° C. in an incubator. UV-Vis spectrophotometry, colorimetry, and HPLC analyses were conducted over a 5 day period following the addition of ascorbic acid or hydrogen peroxide. UV-Vis spectral data was collected every hour for the first 8 hours, and then at 12 hr, and daily from that point on for 5 days. […] HPLC analyses were conducted on days 0, 1, 3, and 5. All treatments were run in triplicate. A SpectraMax 190 Microplate Reader (Molecular Devices, Sunnyvale, Calif., U.S.) with a 96-well plate (poly-D-lysine coated polystyrene) were used for the evaluation of absorbance from 380-700 nm, 1 nm intervals. Aliquots (200 uL) of samples were loaded into individual wells, and a blank consisted of the same citrate buffer used. Because of the rapid nature of AA-induced color loss, degradation kinetics were evaluated in terms of change in maximum absorbance at the original λmax over time. Bleaching is a first-order reaction, typical of ACN degradation, and was modeled as such in determining the reaction rate and half-life. The decrease in maximum absorbance correlated with an increase in lightness (L*) as well as the decrease in chroma (c*). The reduction in maximum absorbance did closely follow first-order kinetics for chokeberry extract and cyanidin-3-galactoside but slightly deviated for 5-carboxypyranocyanidin-3-galactoside. […] The kinetics results for each pigment and AA level can be found in Table 3 below.

[2] = Anthocyanin survival of control treatments at pH 2.5 (uHPLC AUC 500-520 nm); assay type: physicochemical; conditions: pH 2.5 acidified water, no pyruvic acid, 25° C., day 31
Protocol: FIG. 10: Pyranoanthocyanin yield for anthocyanins (500 μM) subjected to pyruvic acid treatment (×100 M ratio) and anthocyanin survival of control treatments at pH 2.5 acidified water at day 7, 14, and 31. Yield defined as (AUC500-520 nm of PACN at tn/AUC500-520 nm of ACN @t0)*100. Survival defined as (AUC500-520 nm of ACN at tn/AUC500-520 nm of ACN @ t0)*100. Values shown are means (n=3) and bars represent standard deviation.
A uHPLC system (Shimadzu Nexera-i LC-2040C, Maryland, U.S.) coupled with tandem MS (Shimadzu LCMS-8040, Maryland, U.S.) was used in evaluating initial anthocyanin purity and monitoring changes in anthocyanins with and without pyruvic acid treatment over time. A 0.4 mL/min flow rate was used on a Pinnacle DB (Restek Corporation, Bellefonte, Pa.) C18 Column (1.9 μm particle size, 50×2.1 mm length). The column oven was set at 40° C. The following gradient of solvent A (4.5% formic acid) and B (100% acetonitrile) was used: 0% B for the first minute, ramped to 15% B by 10 min. This method was effective for separation of the formed pyranoanthocyanin from anthocyanin for all isolates except cy3rut which coeluted with the formed pyranoanthocyanin. This was observed through MS-MS data. […]
Quantification of pigments was conducted on day 0, 3, 7, 14, and 31 using a standard curve of cyanidin-3-glucoside (Sigma Aldrich, St. Louis, Mo., U.S.) run under the same conditions used for isolates. Molar absorptivities of anthocyanins and carboxypyranoanthocyanidins have been reported as being relatively similar and were thought to provide a basis of confidence in using AUC500-520 nm as a quantitative measure of pyranoanthocyanin yield.
Prior to dilution, the concentrations of the isolated pigment extracts were determined by the pH differential method for subsequent dilution to known concentrations. The isolates were then diluted to 500 μM (expressed as Cyanidin-3-glucoside equivalents) in pH 2.5 deionized water (previously adjusted with HCl) which contained 0.1% potassium sorbate (w/v) and 0.1% sodium benzoate (w/v) to function as preservative agents during storage. […]

**Q.** With `OC[C@H]1O[C@@H](Oc2cc3c(O)cc(O)cc3[o+]c2-c2ccc(O)c(O)c2)[C@H](O)[C@@H](O)[C@H]1O` [Cyanidin-3-galactoside, cyanidin-3-galactoside] as the compound, how does the “K (reaction rate, first-order)” value ([1]; 250 mg/L AA) read?
**A.** Its value is 3.18E−02.

**Q.** And the t1/2 ([1]; 250 mg/L AA)?
**A.** The t1/2 was 22 h.

**Q.** What about the “reduction in maximum absorbance” value ([1]; 500 mg/L AA, 5 day period) of the same compound?
**A.** Its value is 88%.

**Q.** What about the “λmax after hypsochromic change” value ([1]; 500 mg/L AA, after treatment) of the same compound?
**A.** The value was 509 nm.

**Q.** What about the “λmax before hypsochromic change” value ([1]; 500 mg/L AA, start) of the same compound?
**A.** Its value is 511 nm.

**Q.** What about the “K (reaction rate, first-order)” value ([1]; 500 mg/L AA) of the same compound?
**A.** Its value is 5.90E−02.

**Q.** And the t1/2 ([1]; 500 mg/L AA)?
**A.** Its t1/2 is 12 h.

**Q.** What about the “K (reaction rate, first-order)” value ([1]; 1000 mg/L AA) of the same compound?
**A.** Its value is 8.64E−02.

**Q.** What about the t1/2 ([1]; 1000 mg/L AA) of the same compound?
**A.** Its t1/2 is 8 h.

**Q.** And the “slope of reaction rate vs AA level (susceptibility to AA), relative to 5-carboxypyranocyanidin-3-galactoside” value ([1]; AA 0-1000 mg/L)?
**A.** Its value is 8.2 ×.

**Q.** And the “slope of reaction rate vs AA level, relative to chokeberry extract” value ([1]; AA 0-1000 mg/L)?
**A.** The value was 3.1 ×.

**Q.** What about the t1/2 ([1]; Control, no AA) of the same compound?
**A.** Its t1/2 is 546 h.

**Q.** And the “K (reaction rate, first-order)” value ([1]; Control, no AA, absorbance at λvis-max)?
**A.** The value was 1.27E−03.

**Q.** What about the “time before a significant difference (p<0.05) in maximum absorbance from time 0” value ([1]; all levels of AA added) of the same compound?
**A.** The value was 2 h.

**Q.** And the “anthocyanin survival of control treatment” value [2]?
**A.** Its value is 84%.
